For 17 molecules, IC50 results are on record in patent US9682995B2, “Amino-substituted isothiazoles” (BAYER PHARMA AKTIENGESELLSCHAFT, priority 2013, dated 2017).

Molecules are shown by their SMILES. Where only a bound is given, the exact number is not on record here.

One assay deals with human kinase Mps-1 (Homo sapiens (Human), UniProt P33981). The assay is described as follows: Mps-1 kinase assay (TR-FRET). It counts as biochemical. To be noted: 10 μM ATP; read-out: Mps1 avg (IC50 [mol/l]). As to the method:
The human kinase Mps-1 phosphorylates a biotinylated substrate peptide. Detection of the phosphorylated product is achieved by time-resolved fluorescence resonance energy transfer (TR-FRET) from Europium-labelled anti-phospho-Serine/Threonine antibody as donor to streptavidin labelled with cross-linked allophycocyanin (SA-XLent) as acceptor. Compounds are tested for their inhibition of the kinase activity.
N-terminally GST-tagged human full length recombinant Mps-1 kinase (purchased from Invitrogen, Karslruhe, Germany, cat. no PV4071) was used. As substrate for the kinase reaction a biotinylated peptide of the amino-acid sequence biotin-Ahx-PWDPDDADITEILG (C-terminus in amide form, purchased from Biosyntan GmbH, Berlin) was used.
For the assay 50 nl of a 100-fold concentrated solution of the test compound in DMSO was pipetted into a black low volume 384 well microtiter plate (Greiner Bio-One, Frickenhausen, Germany), 2 μl of a solution of Mps-1 in assay buffer [0.1 mM sodium-ortho-vanadate, 10 mM MgCl2, 2 mM DTT, 25 mM Hepes pH 7.7, 0.05% BSA (w/v), 0.001% Pluronic F-127] were added and the mixture was incubated for 15 min at 22° C. to allow pre-binding of the test compounds to Mps-1 before the start of the kinase reaction. Then the kinase reaction was started by the addition of 3 μl of a solution of 16.7 μM adenosine-tri-phosphate (ATP, 16.7 μM=>final conc. in the 5 μl assay volume is 10 μM) and peptide substrate (1.67 μM=>final conc. in the 5 μl assay volume is 1 μM) in assay buffer and the resulting mixture was incubated for a reaction time of 60 min at 22° C. The concentration of Mps-1 in the assay was adjusted to the activity of the enzyme lot and was chosen appropriate to have the assay in the linear range, typical enzyme concentrations were in the range of about 0.5 nM (final conc. in the 5 μl assay volume). The reaction was stopped by the addition of 5 μl of a solution of TR-FRET detection reagents (100 mM Hepes pH 7.4, 0.1% BSA, 40 mM EDTA, 140 nM Streptavidin-XLent [#61GSTXLB, Fa. Cis Biointernational, Marcoule, France], 1.5 nM anti-phospho(Ser/Thr)-Europium-antibody [#AD0180, PerkinElmer LAS, Rodgau-Jugesheim, Germany]. Instead of the 1.5 nM anti-phospho(Ser/Thr)-Europium-antibody a mixture of 2 nM unlabeled anti-phospho ser/thr-pro antibody MPM-2 [Millipore cat. #05-368] and 1 nM LANCE EU-W1024 labeled anti-mouse IgG antibody [Perkin-Elmer, product no. AD0077] can be used).
The resulting mixture was incubated 1 h at 22° C. to allow the binding of the phosphorylated peptide to the anti-phospho(Ser/Thr)-Europium-antibody. Subsequently the amount of phosphorylated substrate was evaluated by measurement of the resonance energy transfer from the Europium-labelled anti-phospho(Ser/Thr) antibody to the Streptavidin-XLent. Therefore, the fluorescence emissions at 620 nm and 665 nm after excitation at 350 nm was measured in a Viewlux TR-FRET reader (PerkinElmer LAS, Rodgau-Jugesheim, Germany). The “blank-corrected normalized ratio” (a Viewlux specific readout, similar to the traditional ratio of the emissions at 665 nm and at 622 nm, in which blank and Eu-donor crosstalk are subtracted from the 665 nm signal before the ratio is calculated) was taken as the measure for the amount of phosphorylated substrate. The data were normalised (enzyme reaction without inhibitor=0% inhibition, all other assay components but no enzyme=100% inhibition).

Assay [1] has as its system spindle assembly checkpoint. The assay is described as follows: SAC-Formation - Paclitaxel-Induced Assay. Type of assay: cell-based. The note with it: Homo sapiens; HeLa cells, paclitaxel 0.05 μM, 24 h, phosphorylated histone H3 on serine 10. From the text:
The spindle assembly checkpoint assures the proper segregation of chromosomes during mitosis. Upon entry into mitosis, chromosomes begin to condensate which is accompanied by the phosphorylation of histone H3 on serine 10. Dephosphorylation of histone H3 on serine 10 begins in anaphase and ends at early telophase. Accordingly, phosphorylation of histone H3 on serine 10 can be utilized as a marker of cells in mitosis. Nocodazole is a microtubule destabilizing substance. Paclitaxel is a microtubule stabilizing compound. Thus, nocodazole as well as paclitaxel interfere with microtubule dynamics and mobilize the spindle assembly checkpoint. […] The mitotic breakthrough can be detected by the decrease of cells with phosphorylation of histone H3 on serine 10. This decline is used as a marker to determine the capability of compounds of the present invention to induce a mitotic breakthrough. The typical morphological alteration of nuclei with a prematurely completed mitosis after SAC-inhibition can be monitored via image analysis routines supporting those findings.
The nocodazole and paclitaxel variations were used to focus on compounds that are capable of inhibiting a SAC induced by both microtubule destabilization as well as microtubule stabilization. When SAC inducing agents and compounds are given simultaneously, inhibitors that effectively block the SAC during formation or abrogation are identified. When cells are incubated with a SAC inducing agent and the SAC interfering compound is given after a defined time, inhibitors are identified that effectively block SAC abrogation.
Cultivated cells of the human cervical tumor cell line HeLa (ATCC CCL-2) were plated at a density of 1000 cells/well in a 1536-well microtiter plate in 2 μl PAA Ham's F12 Medium supplemented with 1% (v/v) glutamine, 1% (v/v) penicillin, 1% (v/v) streptomycin and 10% (v/v) fetal calf serum. After incubation overnight at 37° C., 10 μl/well paclitaxel at a final concentration of 0.05 μM were added to cells. Test compounds solubilized in dimethyl sulfoxide (DMSO) were added at various concentrations (0 μM, as well as in the range of 0.005 μM-20 μM; the final concentration of the solvent DMSO was 0.5% (v/v)). Cells were incubated for 24 h at 37° C. in the presence of test compounds in combination with paclitaxel. Thereafter, cells were fixed in 4% (v/v) paraformaldehyde in phosphate buffered saline (PBS) at 4° C. overnight then permeabilized in 0.1% (v/v) Triton X™ 100 in PBS at room temperature for 20 min and blocked in 0.5% (v/v) bovine serum albumin (BSA) in PBS at room temperature for 15 min. After washing with PBS, 5 μl/well antibody solution (anti-phospho-histone H3 clone 3H10, FITC; Millipore, Cat #16-222; 1:1000 dilution) was added to cells, which were incubated for 2 h at room temperature. Afterwards, cells were washed with PBS and 5 μl/well solution of HOECHST 33342 dye (5 μg/ml) was added to cells and cells were incubated 15 min at room temperature in the dark. Cells were washed twice with PBS then covered with PBS and stored at 4° C. until analysis. Images were acquired with a PERKIN ELMER OPERA™ High-Content Analysis reader. Images were analyzed with image analysis software MetaXpress™ from Molecular devices utilizing the Mitotic Index application module. In this assay both labels HOECHST 33342 and phosphorylated Histone H3 on serine 10 were measured. HOECHST 33342 labels the DNA and is used to count the cell number. The staining of phosphorylated Histone H3 on serine 10 determines the number of mitotic cells. […] Otherwise cells were arrested at G2/M phase of the cell cycle progression. The raw assay data were further analyzed by four-parametric hill equation using Genedata's Assay Analyzer and Condoseo software.

human kinase Mps-1, sequence (P33981 whole entry): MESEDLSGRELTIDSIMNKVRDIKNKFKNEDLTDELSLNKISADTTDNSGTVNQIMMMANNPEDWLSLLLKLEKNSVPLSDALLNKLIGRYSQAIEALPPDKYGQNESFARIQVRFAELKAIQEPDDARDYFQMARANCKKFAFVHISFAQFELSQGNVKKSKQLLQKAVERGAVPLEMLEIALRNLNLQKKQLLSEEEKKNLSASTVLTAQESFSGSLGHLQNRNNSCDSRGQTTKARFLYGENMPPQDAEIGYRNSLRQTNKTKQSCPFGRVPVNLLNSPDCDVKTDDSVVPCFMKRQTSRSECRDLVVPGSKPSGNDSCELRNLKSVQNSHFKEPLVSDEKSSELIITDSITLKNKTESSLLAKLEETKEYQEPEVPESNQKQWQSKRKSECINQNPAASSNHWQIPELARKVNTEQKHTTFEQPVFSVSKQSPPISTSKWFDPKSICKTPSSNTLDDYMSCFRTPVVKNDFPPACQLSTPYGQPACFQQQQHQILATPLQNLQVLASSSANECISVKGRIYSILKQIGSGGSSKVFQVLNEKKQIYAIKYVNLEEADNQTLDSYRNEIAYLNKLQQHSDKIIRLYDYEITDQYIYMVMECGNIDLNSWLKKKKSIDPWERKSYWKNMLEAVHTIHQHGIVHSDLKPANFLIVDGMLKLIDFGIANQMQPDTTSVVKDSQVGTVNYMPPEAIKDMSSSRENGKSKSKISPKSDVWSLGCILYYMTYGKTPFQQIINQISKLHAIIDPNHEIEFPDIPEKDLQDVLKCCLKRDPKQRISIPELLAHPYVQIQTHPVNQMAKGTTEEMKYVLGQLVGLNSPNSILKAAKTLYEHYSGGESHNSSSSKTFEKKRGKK

Consider `CCc1ccccc1NC(=O)c1c(C)nsc1Nc1nc2ccccc2nc1C` [Example 21, N-(2-Ethylphenyl)-3-methyl-5-[(3-methylquinoxalin-2-yl)amino]-1,2-thiazole-4-carboxamide], for which the IC50 at human kinase Mps-1 was above 20 µM; in assay [1], 3.6 µM.

As to `COc1ccc(NC(=O)c2c(C)nsc2Nc2cnc3cccc(C)c3n2)cn1` [Example 22, N-(6-methoxypyridin-3-yl)-3-methyl-5-[(8-methylquinoxalin-2-yl)amino]-1,2-thiazole-4-carboxamide], the values for the IC50 (at human kinase Mps-1; in assay [1]) were above 20 µM and 0.26 µM, respectively.

On to `COc1ccc(NC(=O)c2c(C)nsc2Nc2cnc3cc(Cl)ccc3n2)cn1` [Example 23, 5-[(6-Chloroquinoxalin-2-yl)amino]-N-(6-methoxypyridin-3-yl)-3-methyl-1,2-thiazole-4-carboxamide], for which the results for the IC50 (on human kinase Mps-1; in assay [1]) were above 20 µM and 0.5 µM, respectively.

`COc1ccc(NC(=O)c2c(C)nsc2Nc2nccnc2C#N)cn1` [Example 24, 5-[(3-Cyanopyrazin-2-yl)amino]-N-(6-methoxypyridin-3-yl)-3-methyl-1,2-thiazole-4-carboxamide]: the IC50 at human kinase Mps-1 is above 20 µM; in assay [1] it was 8.5 µM.

In the case of `COc1ccc(NC(=O)c2c(C)nsc2Nc2cc(C#N)ccn2)cn1` [Example 25, 5-[(4-Cyanopyridin-2-yl)amino]-N-(6-methoxypyridin-3-yl)-3-methyl-1,2-thiazole-4-carboxamide], the IC50 on human kinase Mps-1 was above 20 µM; in assay [1], 1.2 µM.

On to `CCOC(=O)c1sc(Nc2snc(C)c2C(=O)Nc2ccccc2CC)nc1C` [Example 26, Ethyl 2-({4-[(2-ethylphenyl)carbamoyl]-3-methyl-1,2-thiazol-5-yl}amino)-4-methyl-1,3-thiazole-5-carboxylate], for which the values for the IC50 (at human kinase Mps-1; in assay [1]) were above 20 µM and 0.25 µM, respectively.

Turning to `Cc1nsc(Nc2cc(C#N)ccn2)c1C(=O)Nc1ccc(F)c(F)c1` [Example 27, 5-[(4-Cyanopyridin-2-yl)amino]-N-(3,4-difluorophenyl)-3-methyl-1,2-thiazole-4-carboxamide], the IC50 at human kinase Mps-1 was above 20 µM; in assay [1], 0.17 µM.

As for `Cc1nsc(Nc2ccc(C#N)cn2)c1C(=O)Nc1ccc(F)c(F)c1` [Example 28, 5-[(5-Cyanopyridin-2-yl)amino]-N-(3,4-difluorophenyl)-3-methyl-1,2-thiazole-4-carboxamide], the IC50 at human kinase Mps-1 is above 20 µM; in assay [1] it was 0.072 µM.

As for `CCOC(=O)c1cnc(Nc2snc(C)c2C(=O)Nc2ccc(OC)nc2)s1` [Example 29, Ethyl 2-({4-[(6-methoxypyridin-3-yl)carbamoyl]-3-methyl-1,2-thiazol-5-yl}amino)-1,3-thiazole-5-carboxylate], the IC50 at human kinase Mps-1 is above 20 µM; in assay [1], 0.7 µM.

Consider `CCOC(=O)c1sc(Nc2snc(C)c2C(=O)Nc2ccc(OC)nc2)nc1C` [Example 30, Ethyl 2-({4-[(6-methoxypyridin-3-yl)carbamoyl]-3-methyl-1,2-thiazol-5-yl}amino)-4-methyl-1,3-thiazole-5-carboxylate], for which the figures for the IC50 (on human kinase Mps-1; in assay [1]) were above 20 µM and 0.32 µM, respectively.

`COC(=O)c1ccc(Nc2snc(C)c2C(=O)Nc2ccc(OC)nc2)nc1` [Example 31, Methyl 6-({4-[(6-methoxypyridin-3-yl)carbamoyl]-3-methyl-1,2-thiazol-5-yl}amino)-nicotinate]: the IC50 (at human kinase Mps-1; in assay [1]) was above 20 µM throughout.

With `COC(=O)c1cnc(Nc2snc(C)c2C(=O)Nc2ccc(OC)nc2)cn1` [Example 32, Methyl 5-({4-[(6-methoxypyridin-3-yl)carbamoyl]-3-methyl-1,2-thiazol-5-yl}amino)-pyrazine-2-carboxylate], the IC50 on human kinase Mps-1 was above 20 µM; in assay [1], 1.2 µM.

As for `CCc1ccccc1NC(=O)c1c(C)nsc1Nc1cnc2cccc(C)c2n1` [Example 33, N-(2-Ethylphenyl)-3-methyl-5-[(8-methylquinoxalin-2-yl)amino]-1,2-thiazole-4-carboxamide], the IC50 at human kinase Mps-1 was above 20 µM; in assay [1] it was 0.73 µM.

Regarding `CCc1ccccc1NC(=O)c1c(C)nsc1Nc1nccnc1C#N` [Example 34, 5-[(3-Cyanopyrazin-2-yl)amino]-N-(2-ethylphenyl)-3-methyl-1,2-thiazole-4-carboxamide], the IC50 on human kinase Mps-1 was above 20 µM; in assay [1], 1.6 µM.

Regarding `CCc1ccccc1NC(=O)c1c(C)nsc1Nc1nc(C)nc2ccccc12` [Example 35, N-(2-Ethylphenyl)-3-methyl-5-[(2-methylquinazolin-4-yl)amino]-1,2-thiazole-4-carboxamide], the IC50 at human kinase Mps-1 is above 20 µM; in assay [1], 4.6 µM.

`COc1ccc(NC(=O)c2c(C)nsc2Nc2ncccc2C#N)cn1` [Example 36, 5-[(3-Cyanopyridin-2-yl)amino]-N-(6-methoxypyridin-3-yl)-3-methyl-1,2-thiazole-4-carboxamide]: the IC50 at human kinase Mps-1 is above 20 µM; in assay [1], 3.7 µM.

On to `COc1ccc(NC(=O)c2c(C)nsc2Nc2cccc(C#N)n2)cn1` [Example 37, 5-[(6-Cyanopyridin-2-yl)amino]-N-(6-methoxypyridin-3-yl)-3-methyl-1,2-thiazole-4-carboxamide], for which the IC50 at human kinase Mps-1 was above 20 µM; in assay [1] it was 0.57 µM.
